Measured values as given in patent US9738626B2, “Antagonists of prostaglandin EP3 receptor” (Pfizer Inc., priority 2014, dated 2017).

What was measured:
human EP3 receptor = human EP3 receptor (Homo sapiens (Human), UniProt P43115); test: EP3 Radioligand SPA Binding Assay; settings: [3H]-PGE2 displacement, Millipore EP3 Chem1 membranes; geometric mean; Ki from IC50 by Cheng-Prusoff
Experimental: To measure the ability of test compounds in the present invention to bind to the human EP3 receptor, and therefore have the potential to antagonize PGE2 activity, radioligand displacement assays were performed. Compound affinity was expressed as a Ki value, defined as the concentration of compound required to decrease [^3H] PGE2 binding by 50% for a specific membrane batch at a given concentration of radioligand.
Test compounds were half log serially diluted in 100% DMSO (J. T. Baker #922401). 1 μL of each compound was added to appropriate wells of a 384-well plate (Matrix Cat #4322). Unlabeled PGE2 (Tocris Cat #2296) at a final concentration of 1 μM was used to determine non-specific binding. 1 μL of 100% DMSO (J. T. Baker #922401) was used to determine total binding. Millipore EP3 Chem1 membranes (prepared in-house from cell paste derived from the Millipore ChemiSCREEN™ Human Recombinant EP3 Prostanoid Receptor Calcium-Optimized Stable Cell Line (Millipore Cat # HTS092C, http://www.millipore.com/catalogue/item/hts092c)) were thawed and diluted in binding buffer (50 mM Hepes pH 7.4 (Lonza Cat #17-737), 5 mM MgCl2 (Sigma-M1028), and 0.1% BSA (Sigma A-7409)) to a final concentration of 1 μg/25 μL. 25 μL of diluted membranes were added to prepared compound plates. WGA coated PVT SPA Beads (Perkin Elmer Cat # RPNQ0060) were diluted in binding buffer to a concentration of 4 μg/ul, and 25 μL of the SPA bead mixture was then added to each well for a final assay concentration of 100 μg/well. [^3H]-PGE2 (Perkin Elmer Cat #NET428) was diluted in binding buffer to a concentration of […], and […] was added to all wells for a final assay concentration of 1.125 nM. Plates were incubated for 30 minutes at r.t. (approximately 25° C.) with shaking. Radioactivity associated with each well was measured after a 10 hour incubation using a Wallac Trilux MicroBeta plate-based scintillation counter and a normalized protocol at 1 minute read/well. The Kd for [^3H]-PGE2 was determined by carrying out saturation binding, with data analysis by non-linear regression, fit to a one-site hyperbola (GraphPad Prism®). IC50 determinations were made from competition curves, analyzed with a proprietary curve fitting program (SIGHTS), similar to GraphPad PRISM® and a 4-parameter logistic dose response equation. Ki values were calculated from IC50 values, using the Cheng-Prusoff equation.
Table 5 below provides the Ki values of Examples for the binding affinity against human EP3 in accordance with the above-described assay. Results are reported as geometric mean Ki values, where the example is identified as a free base or designated salt that is made as a solution for the experiment and N is the number of samples tested for that example and is the sum of the forms identified with the corresponding number of the respective form in parentheses.

[1] = target: human prostaglandin E3 receptor (EP3) (Homo sapiens (Human), UniProt P43115); test: Functional activity: cellular cAMP HTRF assay, antagonism of sulprostone; assay type: cell-based; settings: CHO-K1 cells expressing human EP3; cAMP with 10 nM sulprostone and forskolin; geometric mean
Experimental: The functional activity of two Examples was determined by measuring the effect on cellular cAMP levels, under conditions whereby antagonism of the EP3 receptor could be measured. Compound activity was expressed as an IC50 value, defined as the concentration of compound required to decrease agonist (sulprostone) activity by 50%. CHO-K1 cells expressing human prostaglandin E3 receptor (EP3, DiscoveRx #95-0159C2) were maintained in Ham's F-12 Nutrient Mixture (Invitrogen #11765-054) containing L-Glutamine (Gibco #25030-081), Geneticin (Gibco #10131-027), Pen Strep (Gibco #15070-063) and 10% heat-inactivated fetal bovine serum (Sigma #F4135). […] Cellular cAMP levels were determined using a Homogeneous Time-Resolved Fluorescence (HTRF) cAMP detection kit (cAMP HI-Range Assay Kit; CisBio #62AM6PEJ). […] The assay plates were then held at r.t. and after 60 minutes, changes in the HTRF signal were read with an Envision 2104 multi-label plate reader using excitation of 330 nm and emissions of 615 and 665 nm. Raw data were converted to nM cAMP by interpolation from a cAMP standard curve (as described in the cAMP detection kit protocol) and IC50 determinations were made from the response curves analyzed with a curve fitting program, similar to GraphPad PRISM® and using a 4-parameter logistic dose response equation. […]

Sequence of human EP3 receptor (P43115 whole entry): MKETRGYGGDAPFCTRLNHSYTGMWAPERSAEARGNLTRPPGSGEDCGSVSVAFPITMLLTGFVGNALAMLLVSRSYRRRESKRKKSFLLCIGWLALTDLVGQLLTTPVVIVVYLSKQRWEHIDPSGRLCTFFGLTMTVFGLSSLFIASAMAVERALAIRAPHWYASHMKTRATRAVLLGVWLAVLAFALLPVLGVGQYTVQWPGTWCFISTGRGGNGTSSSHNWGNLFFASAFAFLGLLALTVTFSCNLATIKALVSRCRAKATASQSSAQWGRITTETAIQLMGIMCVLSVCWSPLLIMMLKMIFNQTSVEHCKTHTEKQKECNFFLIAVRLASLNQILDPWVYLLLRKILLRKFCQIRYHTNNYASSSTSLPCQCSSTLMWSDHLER
Sequence of human prostaglandin E3 receptor (EP3) (P43115 whole entry): as above

Row | Ki (human EP3 receptor) [nM] | IC50 [1] [nM] | Compound
1 | 7.3 | – | C[C@]1(c2ccc(-c3cc(C4CC4)c4cccnc4c3)[nH]c2=O)CCCNC1=O [Example 5, (R)-6-(5-Cyclopropylquinolin-7-yl)-3-(3-methyl-2-oxopiperidin-3-yl)pyridin-2(1H)-one]
2 | 3.3 | 30.8 | Cc1cccc2ncc(-c3ccc([C@@]4(C)CCCNC4=O)c(=O)[nH]3)cc12 [Example 1, (R)-3-(3-Methyl-2-oxopiperidin-3-yl)-6-(5-methylquinolin-3-yl)pyridin-2(1H)-one]
3 | 8.9 | – | C[C@]1(c2ccc(-c3cc(Cl)c4cccnc4c3)[nH]c2=O)CCCNC1=O [Example 4, (R)-6-(5-Chloroquinolin-7-yl)-3-(3-methyl-2-oxopiperidin-3-yl)pyridin-2(1H)-one]
4 | 18.6 | 34.1 | Cc1cccc2ncc(-c3ccc([C@@]4(C)CCNC4=O)c(=O)[nH]3)cc12 [Example 7, (R)-3-(3-Methyl-2-oxopyrrolidin-3-yl)-6-(5-methylquinolin-3-yl)pyridin-2(1H)-one]
5 | 48.6 | – | C[C@]1(c2ccc(-c3cc(F)c4cccnc4c3)[nH]c2=O)CCCNC1=O [Example 6, (R)-6-(5-Fluoroquinolin-7-yl)-3-(3-methyl-2-oxopiperidin-3-yl)pyridin-2(1H)-one]
6 | 7.2 | – | Cc1cc(-c2ccc([C@@]3(C)CCCNC3=O)c(=O)[nH]2)cc2ncccc12 [Example 2, (R)-3-(3-Methyl-2-oxopiperidin-3-yl)-6-(5-methylquinolin-7-yl)pyridin-2(1H)-one]
7 | 4.6 | – | CCc1cc(-c2ccc([C@@]3(C)CCCNC3=O)c(=O)[nH]2)cc2ncccc12 [Example 3, (R)-6-(5-Ethylquinolin-7-yl)-3-(3-methyl-2-oxopiperidin-3-yl)pyridin-2(1H)-one]
